As a reminder, the melting point is the temperature, or range, at which the solid turns liquid. For the compound `CN(Cc1cccc(-c2ccc(CC3SC(=O)NC3=O)cc2)c1)C(=O)c1ccc2cc(O)ccc2c1` (stereo unspecified), the melting point is 218 °C. The figure for `Cc1ccnc(C2C(=O)CC(C(C)C)CC2=O)c1` (stereo unspecified) is 104 to 106 °C. In turn, `CCOC(=O)Cc1sc(NC(=O)Nc2ccccc2)nc1-c1ccc(Cl)cc1` yielded a melting point of 192 to 193 °C. Under `O=C(c1ccccc1)c1cc[nH]c1` stands 96 to 97 °C; under `Nc1nc(-c2ccc(CCCCN3CCN(c4cccc5ccccc45)CC3)cc2)cs1`, 242 to 245 °C. For the compound `C=CCN(CC=C)c1nc(NC(=O)c2ccccc2)n2oc(=O)nc2n1`, the melting point fell in the range of 174 to 175 °C. Under `CC(=NO)C1=CCCN(Cc2ccccc2)C1` stands 103 to 105 °C; under `CC(C)(C)OC(=O)N[C@@H](Cc1ccc(C(=N)NC(=O)OCc2ccccc2)cc1)C(=O)O`, 112 to 115 °C. Compound `Cc1noc(NS(=O)(=O)C23CSc4cccc(c42)OCO3)c1C` (stereo unspecified) registered a melting point of 135 to 137 °C. Under `CC(=O)Nc1nc2c(s1)C(=O)C(Br)CC2` (stereo unspecified) stands 180 to 182 °C. The figure for `Cc1nn(-c2ccccc2)c(C)c1CC#N` is 69 to 70 °C; for `COCCOc1ccc(Nc2cc(Nc3ccc(F)c(Cl)c3)ncn2)cc1` it is 208 to 210 °C.

Compound `CC(C)(C)c1cc(CC(C)(C)[N+](=O)[O-])cc(C(C)(C)C)c1O` displayed a melting point of 101 to 104 °C. Consider `Nc1ccc2c(c1-c1n[nH]cc1Cl)OC(F)(F)O2`, for which the melting point worked out at 195 °C. `O=C(O)Cc1c(Oc2ccc3c(c2)OCO3)cccc1Oc1ccc2c(c1)OCO2` registered a melting point of 176 to 177 °C. The figure for `CC(=O)c1ccc2c(c1)C(c1ccccn1)CC(C)(C)O2` (stereo unspecified) is 102 to 105 °C; for `CCNc1nc(=S)n(CC)c2nc(C3CC3)[nH]c12` it is 265 °C; for `CCC(=O)N1CCC(NC(=O)NC2CCCCCC2)CC1` it is 164 to 172 °C.

Regarding `O=Cc1c[nH]c(Cc2ccccc2)n1`, the melting point lay within 130 to 136 °C.

`O=C(CN1CCC(Cc2ccccc2)CC1)Nc1cccc(NCc2ccccc2)c1` returned a melting point of 112 to 114 °C. Under `Cc1c(Cl)cc(-c2ccc(=O)[nH]n2)cc1Br` stands 247 to 250 °C; under `O=[N+]([O-])c1cccnc1Oc1ccc2c(c1)OCC(c1ccccc1)O2` (stereo unspecified), under 60 °C. The figure for `O=C1CNC(=O)[C@@H](CO)N1` is 218 °C.

`COc1ccc(CN2CCC(COc3ccc(F)cc3)CC2)cc1` had a melting point of 79 to 81 °C. The figure for `Cc1cc(C#N)cnc1Oc1c(Cl)cc(NC(=O)NC(=O)c2c(Cl)cccc2Cl)cc1Cl` is 245 to 246 °C. The figure for `O=C(c1ccccc1)c1ccc(NC(=O)C(O)(C(F)F)C(F)F)cc1` is 139 to 142 °C. Under `CCCCC1Cc2c(n(-c3ccc(F)cc3)c3ncccc3c2=O)O1` (stereo unspecified) stands 243 to 245 °C; under `CCO[PH](=O)Cc1cc(Oc2ccc(C(F)(F)F)cc2Cl)ccc1[N+](=O)[O-]` (stereo unspecified), 106 to 107 °C. The compound `CCC(=O)c1c(CC)n(Cc2ccccc2Cl)c2cc(C#N)ccc12` yielded a melting point of 115 to 118 °C. In turn, `CCOC(=O)c1cccc2c1Cc1c-2[nH]c2ccc(Br)cc12` yielded a melting point of 198 to 200 °C.

In turn, `CCCCCCCCCCCCCCCCSCC1(CNS(=O)(=O)CCCCl)CCCO1` (stereo unspecified) displayed a melting point of 44.5 to 45.5 °C.

As for `CC(C)=CCOc1ccc2cc(C(C)C(=O)O)ccc2c1` (stereo unspecified), the melting point lay in the range of 97 to 100 °C.

`CNCC1Cc2cc(-c3ccccc3)cc(-c3ccc(Cl)cc3)c2O1` (stereo unspecified) yielded a melting point of over 250 °C.

In turn, `COc1cc(N2C(=O)c3ccccc3C2=O)ccc1-c1ccc(Cl)s1` showed a melting point of 194 to 195 °C. Under `Oc1ccc(Br)cc1C12CC3CC(CC(C3)C1)C2` stands 140 to 141 °C; under `CCCCc1nc(SC)c(C(=O)OCC)n1Cc1ccccc1-c1ccccc1S(=O)(=O)NC#N`, 105 °C.

As to `CC(=O)C1=C(O)C(=C(C)Nc2ccc(N)cc2)C(=O)OC1=O`, the melting point lay within 215 to 218 °C. The figure for `CC(C)(C)c1cc(-c2nn(CCN3CCCC3=O)c3ncccc23)cc(C(C)(C)C)c1O` is 148 to 150 °C. The figure for `O=C1c2cc(O)cc(O)c2C(=O)C1c1ccc(O)cc1` (stereo unspecified) is 180 °C; for `CCOCc1cc(COc2cc(C)nc(C)c2OC)ccc1-c1ccccc1S(=O)(=O)Nc1noc(C)c1C` it is 78 to 82 °C; for `CCOC(CN1C(=O)C(NC(=O)Nc2cccc(C)c2)CN(C(=O)C(C)(C)C)c2ccccc21)OCC` (stereo unspecified) it is 167 to 169 °C. The figure for `CCn1cc(C(=O)O)c(=O)c2cc(F)c(-c3csc(CNC)n3)c(O)c21` is 242 to 246 °C. With `CC=CCC(O)(C(=O)c1ccccc1)C(=O)c1ccc(C(C)C)cc1` (stereo unspecified), the melting point lay within 108 to 110 °C. Compound `CC(C)Cn1c(CO)c(-c2ccccc2)c2cc(Br)ccc2c1=O` returned a melting point of 176 to 177 °C.

For `CC(C(=O)n1c(=O)oc2ccccc21)C1(O)CCCCC1` (stereo unspecified), the melting point was in the range of 58 to 59 °C.

`CC(C)(C)[Si](C)(C)OCc1cc(-c2ccc3nc(Cl)cn3c2)cs1`: the melting point was 100 to 104 °C. Under `CCOC(=O)C(=CNc1ncnc2ccc(NC(=O)CC(C)(C)C)cc12)C(=O)OCC` stands 133 to 135 °C; under `CN(Cc1ccc(C(=O)Nc2ccc(Nc3cc(-c4cccc5c4oc4ccccc45)ncn3)cc2)cc1)C(=O)OC(C)(C)C`, 225 to 230 °C. The figure for `Cc1cn(CCCN2C(=O)c3ccc(Cl)c(Cl)c3C2=O)cn1` is 147 to 151 °C; for `C/C(=C/C#N)c1ccc2c(c1)C(C)(C)OC(=O)N2` it is 213 to 215 °C; for `COc1ccc(OC(=O)N2CCCC2=O)cc1` it is 133 to 134 °C.

For the compound `O=C(OCc1ccccc1)C1C(Sc2ccccc2)CC2CC(=O)N21` (stereo unspecified), the melting point lay in the range of 84 to 85 °C. As to `CCCOc1cc(-c2nc(-c3ccc(C(=O)OC)o3)cs2)ccc1OC`, the melting point is 141 to 142 °C. `Cc1ccc2c(c1)c(=O)oc(=O)n2C` came in with a melting point of 153 °C. The figure for `COc1cc(COc2ccc(N)nn2)c(Br)c(OC)c1OC` is 160 to 161 °C; for `O=S(=O)(c1ccccc1)C1CCCO1` (stereo unspecified) it is 55.9 to 56.8 °C. The figure for `Cn1ncc(-c2ccc(O)cc2)cc1=O` is 296 to 298 °C; for `NN(CCO)C(=O)Nc1ccc(Cl)cc1` it is 141 to 142 °C. Under `CC(O)c1onc(-c2ccccc2Cl)c1C(=O)c1nnn(Cc2cc(C(F)(F)F)cc(C(F)(F)F)c2)c1N1CCOCC1` (stereo unspecified) stands 145 to 146 °C; under `CCOC(=O)C=Cc1ccc(OCCc2nc(-c3ccccc3)oc2C)cc1`, 114 to 115 °C; under `Oc1cnccc1CCCOc1cccnc1Nc1cccc(Br)c1`, 138 to 141 °C. Regarding `CC(C)(C)OC(=O)NC1COCCCC=CC2CC2(C(=O)NS(=O)(=O)C2CC2)NC(=O)C2CC(OC(=O)c3cccc(Oc4ccccc4)c3)CN2C1=O` (stereo unspecified), the melting point lay within 123 to 125 °C. The figure for `O=C(O)CC1CCCc2c1n(Cc1ccc(Cl)cc1Cl)c1c(F)cc(F)cc21` (stereo unspecified) is 160 to 161 °C; for `COc1c(NOCc2ccc(C(C)(C)C)cc2)ccnc1C` it is 113 °C. The figure for `CC(C)N1C(=O)C(=O)NC1=NC(=NC(=O)OC(C)(C)C)Nc1ccc(Cl)c(Cl)c1` is 226 °C. Regarding `O=C(NC(c1ccccc1)(c1ccccc1)c1ccccc1)c1ccccc1`, the melting point lay in the range of 200 to 202 °C. In turn, `Cc1cc(-n2c(C)nnc2C)cc2ccc(=O)[nH]c12` returned a melting point of 308 to 310 °C. For the compound `COc1cccc(Cc2cc(F)ccc2O)c1`, the melting point lay within 153 to 155 °C. Under `O=C(O)Cc1ccc(-c2ccc(F)cc2)c(F)c1` stands 144 to 146 °C; under `CN1CC(CCCl)Oc2ncc(Cl)cc2C1=O` (stereo unspecified), 78 to 79 °C; under `O=C(CC(=O)OCc1ccccc1)OCc1ccccc1`, 104 to 106 °C.

`CCCNC(=O)c1cc2cc(OCCNC[C@H](O)COc3ccccc3)ccc2o1` displayed a melting point of 127 to 128 °C. Under `C[C@@H]1CN(C(=O)OC(C)(C)C)Cc2cc3cc(F)cnc3n21` stands 85 to 87 °C; under `CCCOc1ccc(CO)cc1N`, 94 to 95 °C; under `COc1ccc([N+](=O)[O-])cc1N1CCNCC1`, 84 to 87 °C. Under `CC(=O)OCC(=O)CS(=O)(=O)C(c1ccc(Cl)cc1)c1ccc(Cl)cc1` stands 57 to 60 °C; under `Cc1ccccc1NC(=O)c1ccc(-n2nc(C3CC3)cc2C2CC2)nc1`, 123 to 126 °C; under `CCOC(=O)c1snnc1SC`, 64.5 to 65.5 °C. `O=c1[nH]c2cc(C(F)(F)F)ccc2n1CCCN1CCN(C(c2ccccc2)c2ccccc2)CC1` showed a melting point of 153 °C. The figure for `Clc1cc2nc(-c3csc(Cc4c(Cl)cccc4Cl)n3)[nH]c2cc1Cl` is 245 to 247 °C; for `CC(C)NC1=NS(=O)(=O)c2cc(Cl)cc(N)c2N1` it is over 230 °C; for `COc1cn(C(C)=O)c2ccc(F)cc12` it is 124 to 125 °C. Under `COc1cccc(-c2nn(Cc3ccccc3)c(N)c2C#N)c1` stands 147 to 149 °C; under `COc1ccc(C(=O)O)cc1C1(C)CCCCC1`, 199 °C; under `O=c1[nH]c2ccsc2c(=O)n1CCN1CCN(c2ccccc2Cl)CC1`, 193 to 196 °C. In turn, `CCCCn1cc(C(=O)C(=O)O)c2cc(-c3ccc(Cl)cc3)ccc21` came in with a melting point of 136 to 137 °C. The figure for `CCCCCCCCCCCCCCCC(=O)OCCCN(C)C` is 49 to 50 °C; for `CCOC(=O)Cc1c2c(nn1-c1ccccc1)c(=O)[nH]c1ccccc12` it is 301 to 303 °C; for `COc1ccccc1N1CCN(CC(C(=O)O)c2ccccc2)CC1` (stereo unspecified) it is 160 to 163 °C.

Compound `CCCCCCCC(=O)OC(C)c1ccc(-c2ccc(OCc3ccccc3)cc2)cc1` (single isomer, unassigned; (+)) gave a melting point of 91 to 92 °C. The figure for `COC1=CC(=O)C=C(Br)C1=O` is 157 to 158 °C.

The values above are taken from a melting point compilation (Tetko et al.; mined from patent text by program, amines drawn as free bases though some values may be those of a salt).
